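Each compound was tested at five concentrations against cells in 96-well plates for 48 hours. Abbreviation: GI50, concentration required for 50% inhibition of growth.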 Active and inactive are the calls of the source. No stated cut-off is given here; in the data, active = GI50 up to about 1.1 µM and inactive = higher.
Experiments:
Experiment in all cases: NCI anticancer screen, dose series, 48 h
[1] = tested on: HOP-62
[2] = tested on: NCI-H226
[3] = tested on: KM12
[4] = tested on: RXF 393
[5] = tested on: U-251
[6] = tested on: SNB-75
[7] = tested on: K562
[8] = tested on: SK-MEL-2
[9] = tested on: SNB-19
[10] = tested on: HCT-15
[11] = tested on: NCI-H23
[12] = tested on: HOP-92
[13] = tested on: EKVX
[14] = tested on: ACHN
[15] = tested on: CCRF-CEM
[16] = tested on: NCI-H522
[17] = tested on: MOLT-4

## Cc1ccc(NC(=O)C(=O)Cc2nc3ccccc3o2)c(C)c1
[1]
  GI50: > 100 µM (inactive)
[2]
  GI50: > 100 µM (inactive)
[3]
  GI50: > 100 µM (inactive)
[4]
  GI50: > 100 µM (inactive)
[5]
  GI50: > 100 µM (inactive)
[6]
  GI50: > 100 µM (inactive)
[7]
  GI50: > 100 µM (inactive)
[8]
  GI50: > 100 µM (inactive)
[9]
  GI50: > 100 µM (inactive)
[10]
  GI50: > 100 µM
[11]
  GI50: > 100 µM (inactive)
[12]
  GI50: > 100 µM (inactive)
[13]
  GI50: > 100 µM (inactive)
[14]
  GI50: > 100 µM (inactive)

## O=c1/c(=C/c2c(O)ccc3ccccc23)sc2nc3ccccc3n12
[1]
  GI50: > 100 µM (inactive)
[2]
  GI50: > 100 µM (inactive)
[3]
  GI50: > 100 µM (inactive)
[4]
  GI50: > 100 µM (inactive)
[5]
  GI50: > 100 µM (inactive)
[6]
  GI50: > 100 µM (inactive)
[7]
  GI50: > 100 µM (inactive)
[15]
  GI50: > 100 µM (inactive)
[8]
  GI50: > 100 µM (inactive)
[9]
  GI50: > 100 µM (inactive)
[10]
  GI50: > 100 µM
[11]
  GI50: > 100 µM (inactive)
[16]
  GI50: > 100 µM (inactive)
[12]
  GI50: > 100 µM (inactive)
[13]
  GI50: > 100 µM (inactive)
[14]
  GI50: > 100 µM (inactive)

## O=[PH](O)c1ccsc1
[1]
  GI50: > 100 µM (inactive)
[17]
  GI50: > 100 µM (inactive)
[4]
  GI50: > 100 µM (inactive)
[5]
  GI50: > 100 µM (inactive)
[7]
  GI50: > 100 µM (inactive)
[15]
  GI50: > 100 µM (inactive)
[10]
  GI50: > 100 µM
[11]
  GI50: > 100 µM (inactive)
[16]
  GI50: > 100 µM (inactive)
[12]
  GI50: 86.5 µM (inactive)
[13]
  GI50: > 100 µM (inactive)
[14]
  GI50: > 100 µM (inactive)

## COc1cc(C(C#N)NNc2nc(C)cc(O)n2)cc(OC)c1OC (centres undefined)
[1]
  GI50: > 100 µM (inactive)
[2]
  GI50: > 100 µM (inactive)
[3]
  GI50: > 100 µM (inactive)
[4]
  GI50: > 100 µM (inactive)
[5]
  GI50: > 100 µM (inactive)
[6]
  GI50: 37.2 µM (inactive)
[7]
  GI50: > 100 µM (inactive)
[15]
  GI50: > 100 µM (inactive)
[8]
  GI50: > 100 µM (inactive)
[10]
  GI50: > 100 µM
[11]
  GI50: > 100 µM (inactive)
[16]
  GI50: > 100 µM (inactive)
[12]
  GI50: 51.6 µM (inactive)
[14]
  GI50: > 100 µM (inactive)

## COc1ccc(/C=C/CN(C)CCc2ccccc2)cc1OC
[2]
  GI50: > 100 µM (inactive)
[17]
  GI50: 40.6 µM (inactive)
[3]
  GI50: > 100 µM (inactive)
[4]
  GI50: 51.2 µM (inactive)
[5]
  GI50: 86.9 µM (inactive)
[6]
  GI50: 25.9 µM (inactive)
[7]
  GI50: 26.5 µM (inactive)
[8]
  GI50: > 100 µM (inactive)
[9]
  GI50: > 100 µM (inactive)
[10]
  GI50: > 100 µM
[11]
  GI50: > 100 µM (inactive)
[12]
  GI50: 4.89 µM (inactive)
[13]
  GI50: > 100 µM (inactive)
[14]
  GI50: > 100 µM (inactive)

## O=C(CCc1n[nH]c(=S)o1)Nc1cc(Cl)c(Cl)cc1Cl
[1]
  GI50: 50.8 µM (inactive)
[2]
  GI50: 66.4 µM (inactive)
[17]
  GI50: 45 µM (inactive)
[3]
  GI50: 87.9 µM (inactive)
[5]
  GI50: 35.2 µM (inactive)
[6]
  GI50: 89.1 µM (inactive)
[7]
  GI50: 18.9 µM (inactive)
[15]
  GI50: 31.6 µM (inactive)
[9]
  GI50: > 100 µM (inactive)
[10]
  GI50: 22.2 µM
[11]
  GI50: > 100 µM (inactive)
[16]
  GI50: 71.9 µM (inactive)
[12]
  GI50: 48.8 µM (inactive)
[13]
  GI50: 36.9 µM (inactive)
[14]
  GI50: 40.5 µM (inactive)

## O=C1CCC2CCc3cccc4oc1c2c34 (centres undefined)
[1]
  GI50: > 100 µM (inactive)
[17]
  GI50: 96.2 µM (inactive)
[4]
  GI50: > 100 µM (inactive)
[5]
  GI50: > 100 µM (inactive)
[6]
  GI50: > 100 µM (inactive)
[7]
  GI50: > 100 µM (inactive)
[15]
  GI50: > 100 µM (inactive)
[9]
  GI50: > 100 µM (inactive)
[10]
  GI50: > 100 µM
[11]
  GI50: > 100 µM (inactive)
[12]
  GI50: 75.5 µM (inactive)
[13]
  GI50: 74.1 µM (inactive)
[14]
  GI50: > 100 µM (inactive)

## O=C(CN(c1ccccc1)c1ccccc1)n1nnc2ccccc21
[1]
  GI50: > 100 µM (inactive)
[2]
  GI50: 27.5 µM (inactive)
[17]
  GI50: 28.2 µM (inactive)
[4]
  GI50: 26.1 µM (inactive)
[5]
  GI50: 26.1 µM (inactive)
[6]
  GI50: 27 µM (inactive)
[7]
  GI50: 37.8 µM (inactive)
[15]
  GI50: 35 µM (inactive)
[8]
  GI50: 30.6 µM (inactive)
[9]
  GI50: 24.5 µM (inactive)
[10]
  GI50: 39.7 µM
[11]
  GI50: 45.1 µM (inactive)
[16]
  GI50: 21.4 µM (inactive)
[13]
  GI50: 36 µM (inactive)
[14]
  GI50: 36.5 µM (inactive)

## COCCNC(=O)C1C(=O)C(=O)N(CCOC)C1=O (centres undefined)
[1]
  GI50: > 100 µM (inactive)
[2]
  GI50: > 100 µM (inactive)
[4]
  GI50: > 100 µM (inactive)
[5]
  GI50: > 100 µM (inactive)
[6]
  GI50: > 100 µM (inactive)
[7]
  GI50: > 100 µM (inactive)
[15]
  GI50: > 100 µM (inactive)
[8]
  GI50: > 100 µM (inactive)
[9]
  GI50: > 100 µM (inactive)
[10]
  GI50: > 100 µM
[11]
  GI50: > 100 µM (inactive)
[16]
  GI50: > 100 µM (inactive)
[12]
  GI50: > 100 µM (inactive)
[13]
  GI50: > 100 µM (inactive)
[14]
  GI50: > 100 µM (inactive)

## CC(C)CC(NC(=O)OC(C)(C)C)C(=O)Nc1ccc(Nc2nc(F)nc(-c3c4ccccc4c4n3CCS4)n2)cc1 (centres undefined)
[1]
  GI50: 21.2 µM (inactive)
[17]
  GI50: 16 µM (inactive)
[3]
  GI50: 26.7 µM (inactive)
[4]
  GI50: 34 µM (inactive)
[5]
  GI50: 18.8 µM (inactive)
[6]
  GI50: 22.2 µM (inactive)
[7]
  GI50: 26.8 µM (inactive)
[15]
  GI50: 3.65 µM (inactive)
[8]
  GI50: 18.2 µM (inactive)
[9]
  GI50: 18.2 µM (inactive)
[10]
  GI50: 16.3 µM
[11]
  GI50: 18.7 µM (inactive)
[16]
  GI50: 15.3 µM (inactive)
[12]
  GI50: 18.8 µM (inactive)
[13]
  GI50: 19.7 µM (inactive)
[14]
  GI50: 24.3 µM (inactive)
